How the values were obtained:
[1] = Particle size and polydispersity index of nanoparticle compositions (Zetasizer Nano ZS); format: physicochemical; conditions: Table 1A; for Size (nm): lipid:DSPC:cholesterol:PEG-DMG 50:10:38.5:1.5 mol %
Protocol: A Zetasizer Nano ZS (Malvern Instruments Ltd, Malvern, Worcestershire, UK) can be used to determine the particle size, the polydispersity index (PDI) and the zeta potential of the nanoparticle compositions in 1×PBS in determining particle size and 15 mM PBS in determining zeta potential.

[2] = Encapsulation efficiency of RNA (QUANT-IT RIBOGREEN RNA assay); format: physicochemical; conditions: Table 1A
Protocol: For nanoparticle compositions including an RNA, a QUANT-IT™ RIBOGREEN® RNA assay (Invitrogen Corporation Carlsbad, CA) can be used to evaluate the encapsulation of an RNA by the nanoparticle composition. The samples are diluted to a concentration of approximately […] in a TE buffer solution (10 mM Tris-HCl, 1 mM EDTA, pH 7.5). 50 μL of the diluted samples are transferred to a polystyrene 96 well plate and either 50 μL of TE buffer or 50 μL of a 2% Triton X-100 solution is added to the wells. The plate is incubated at a temperature of 37° C. for 15 minutes. The RIBOGREEN® reagent is diluted 1:100 in TE buffer, and 100 μL of this solution is added to each well. The fluorescence intensity can be measured using a fluorescence plate reader (Wallac Victor 1420 Multilabel Counter; Perkin Elmer, Waltham, MA) at an excitation wavelength of, for example, about 480 nm and an emission wavelength of, for example, about 520 nm. The fluorescence values of the reagent blank are subtracted from that of each of the samples and the percentage of free RNA is determined by dividing the fluorescence intensity of the intact sample (without addition of Triton X-100) by the fluorescence value of the disrupted sample (caused by the addition of Triton X-100).

[3] = Apparent (surface) pKa of the LNP formulation (TNS assay); format: physicochemical; conditions: Table 1A
Protocol: Using sodium hydroxide (1 M) and hydrochloric acid (1 M), 21 unique buffers were prepared from the master buffer stock at pH values between about 3 and 12. Next, a stock of 300 μM 6-(p-Toluidino)-2-naphthalenesulfonic acid sodium salt (TNS reagent) in DMSO was prepared and the LNP was mixed with the desired formulation buffer at a concentration of 0.04 mg/mL mRNA. This assay has been validated in 1× PBS and 20 mM Tris w/8% sucrose buffer. The buffer solutions at various pH values were added to a 96-well plate in triplicate for each pH. To each well was added 3.26 μL of LNP sample at a mRNA concentration of 0.04 mg/mL and 2.0 μL of 300 μM TNS reagent solution. After careful mixing, the resulting fluorescence values were read for each plate to create a sigmoidal plot of the fluorescence values vs. buffer pH. The […] inflection point of this curve is the apparent pKa of the LNP formulation.

luciferase (Luc) mRNA [4] = assay: Luc expression, whole body bioluminescence after intravenous administration to mice; format: in vivo; conditions: for Fold increase in total body Luc Flux relative to MC3 at 6 h: Table 3A; for Fold increase in total body Luc Flux relative to MC3 at 6 h / flux measured at 6 h relative to the MC3 formulation / 6 h Lipid/MC3 Avg. Luc Expression / Fold increase AUC Lipid/MC3 / AUC (h * p/s): i.v. administration; for Total Flux 3 hours / Total Flux 6 hours / Total Flux 24 hours: mice, i.v., 0.5 mg/kg, Luc mRNA; for flux measured at 6 h relative to the MC3 formulation: in words; for 6 h Lipid/MC3 Avg. Luc Expression / Fold increase AUC Lipid/MC3 / AUC (h * p/s): Table 3C; for AUC (h * p/s) / AUC (p/s * h): Luc; for Lipid/MC3 AUC / AUC (p/s * h): Table 3D, intravenous
Protocol: In order to monitor how effectively various nanoparticle compositions deliver therapeutic and/or prophylactics to targeted cells, different nanoparticle compositions including a particular therapeutic and/or prophylactic (for example, a modified or naturally occurring RNA such as an mRNA) are prepared and administered to rodent populations. Mice are intravenously, intramuscularly, intraarterially, or intratumorally administered a single dose including a nanoparticle composition with a formulation such as those provided in Example 3. In some instances, mice may be made to inhale doses. Dose sizes may range from 0.001 mg/kg to 10 mg/kg, where 10 mg/kg describes a dose including 10 mg of a therapeutic and/or prophylactic in a nanoparticle composition for each 1 kg of body mass of the mouse. A control composition including PBS may also be employed.
Upon administration of nanoparticle compositions to mice, dose delivery profiles, dose responses, and toxicity of particular formulations and doses thereof can be measured by enzyme-linked immunosorbent assays (ELISA), bioluminescent imaging, or other methods. For nanoparticle compositions including mRNA, time courses of protein expression can also be evaluated. Samples collected from the rodents for evaluation may include blood, sera, and tissue (for example, muscle tissue from the site of an intramuscular injection and internal tissue); sample collection may involve sacrifice of the animals.
The efficacy of the nanoparticle compositions presented in Table 1A was evaluated with a bioluminescence study. Formulations were administered intravenously to mice (n=6) at a dosage of 0.5 mg/kg (mpk) and bioluminescence measured at 3, 6, and 24 hour time points. The standard MC3 formulation and, in some instances, a control (e.g., a PBS control) were evaluated for comparison. […] In general, flux decreased as time progressed to less than 10% of the initial flux.
(§1) Whole body and ex vivo organ bioluminescent imaging of mice: CD-1 mice were injected 15 minutes prior to the imaging timepoint intraperitoneally (IP) with 200 μL Xenolight D-luciferin K+ salt, diluted in PBS just prior to use to a concentration of 15 mg/mL. Ex vivo imaging of organs was completed within 25 minutes of luciferin administration. All images were quantified by region of interest for total flux.

luciferase (Luc) mRNA [5] = assay: Luc expression in liver, lung, spleen and femur 6 hours after intravenous administration; format: in vivo; conditions: mice, intravenous, 0.5 mpk
Protocol: The efficacy of the nanoparticle compositions presented in Table 1A was further evaluated by measuring the expression of modified luciferase in the liver, lung, spleen, and femur upon administration of a given composition. Formulations were administered intravenously to mice (n=3) at a dosage of 0.5 mpk and bioluminescence measured after 6 hours. The standard MC3 formulation and a PBS control were also tested. […] Flux in the liver was lowest for compositions including Compounds 58, 59, 137, and 141. Flux in the spleen was highest for compositions including Compounds 4, 7, 33, 34, 48, 53, 108, 129, 130, and 148, and lowest for compositions including Compounds 9, 59, 124, and 141.
as §1

Compound	PDI [1]	Size (nm) [1] [nm]	EE (%) [2] [%]	pKa [3]	Fold increase in total body Luc Flux relative to MC3 at 6 h (luciferase (Luc) mRNA [4])	Total Flux 3 hours (luciferase (Luc) mRNA [4])	Total Flux 6 hours (luciferase (Luc) mRNA [4])	Total Flux 24 hours (luciferase (Luc) mRNA [4])	Total Flux Liver (luciferase (Luc) mRNA [5])	Total Flux Lung (luciferase (Luc) mRNA [5])	Total Flux Spleen (luciferase (Luc) mRNA [5])	flux measured at 6 h relative to the MC3 formulation (luciferase (Luc) mRNA [4])	6 h Lipid/MC3 Avg. Luc Expression (luciferase (Luc) mRNA [4])	Fold increase AUC Lipid/MC3 (luciferase (Luc) mRNA [4])	AUC (h * p/s) (luciferase (Luc) mRNA [4])	Lipid/MC3 AUC (luciferase (Luc) mRNA [4])	AUC (p/s * h) (luciferase (Luc) mRNA [4])
CCCCCCCCCOC(=O)CCCCCCCN(CCO)CCCCCCCC(=O)OC(C)CCCCCCCC (stereo not drawn) [Compound 36, decan-2-yl 8-((2-hydroxyethyl)(8-(nonyloxy)-8-oxooctyl)amino) octanoate]	0.17	163.5	81.45	7.38	0.004	6.97E+07	1.72E+08	4.44E+05	2.65E+07	5.82E+05	6.14E+07	–	–	–	–	–	–
CCCCCCCCC(C)OC(=O)CCCN(CCO)CCCCCCCC(=O)OC(CCCCCCCC)CCCCCCCC (stereo not drawn) [Compound 70, Heptadecan-9-yl 8-((4-(decan-2-yloxy)-4-oxobutyl)(2-hydroxyethyl)amino)octanoate]	0.15	73.7	97.5	6.51	–	4.70E+10	2.49E+10	9.27E+08	8.55E+08	6.32E+06	2.06E+06	–	–	–	–	–	–
CCCCCCCCC(CCCCCCCC)OC(=O)CCCCCCCN(CCO)CCCC(=O)OCC1CC1CCCCCC (stereo not drawn) [Compound 55, heptadecan-9-yl 8-((4-((2-hexylcyclopropyl)methoxy)-4-oxobutyl)(2-hydroxyethyl)amino)octanoate]	0.16	91.6	97.03	6.44	1.52	5.07E+10	1.68E+10	4.06E+08	1.92E+09	7.02E+06	2.63E+07	higher flux than MC3 formulations	–	–	–	–	–
CCCCCCCCCOC(=O)CCCCCCCN(CCCCCCCC(=O)OC(CCCCCCCC)CCCCCCCC)CCN1CCN(C)CC1 [Compound 101, Heptadecan-9-yl 8-((2-(4-methylpiperazin-1-yl)ethyl)(8-(nonyloxy)-8-oxooctyl)amino)octanoate]	0.230	91.7	98.96	7.27	–	1.89E+08	1.41E+08	3.64E+06	1.27E+07	1.77E+05	5.60E+06	–	0.019	0.022	1.8E+09	–	–
CCCCCCCCCOC(=O)CCCCCCCN(CCO)CCCCCCC/C=C\C(CCCCCCCC)CCCCCCCC [Compound 152, Nonyl (Z)-8-((2-hydroxyethyl)(10-octyloctadec-8-en-1-yl)amino)octanoate]	0.072	62.6	99.29	6.465	–	1.56E+09	2.45E+09	4.95E+07	1.43E+08	3.16E+05	6.63E+06	–	–	–	–	0.15	2.855E+010
CCCCCCCCC(CCCCCCCC)OC(=O)CCCCCCCN(CCO)CCCC(=O)OCCCCCCC [Compound 54, heptadecan-9-yl 8-((4-(heptyloxy)-4-oxobutyl)(2-hydroxyethyl)amino) octanoate]	0.19	112.9	96.71	6.51	3.80	5.36E+10	4.18E+10	9.07E+08	5.57E+09	1.12E+07	1.64E+08	higher flux than MC3 formulations	–	–	–	–	–
CCCCCCCCCOC(=O)CCCCCCCN(CCO)CCCCCCCCCOC(=O)C(CCCCCC)CCCCCCCC (stereo not drawn) [Compound 134, 9-((2-Hydroxyethyl)(8-(nonyloxy)-8-oxooctyl)amino)nonyl 2-hexyldecanoate]	0.110	85.6	94.62	6.66	–	2.01E+10	2.91E+10	8.00E+08	1.73E+09	2.82E+06	1.85E+07	–	3.99	4.16	3.43E+11	–	–
CCCCCCCCCOC(=O)CCCCCCCN(CCO)CCCCCCCC(=O)OC1CCC(CCCCC)CC1 (stereo not drawn) [Compound 79, Nonyl 8-((2-hydroxyethyl)(8-oxo-8-((4-pentylcyclohexyl)oxy)octyl)amino)octanoate]	0.18	93.7	89.1	7.53	–	3.23E+08	5.27E+08	3.08E+07	3.15E+06	6.13E+04	6.45E+05	–	–	–	–	–	–
CCCCCCCCCOC(=O)CCCCCCCN(CCO)CCN(CCO)CCCCCCCC(=O)OC(CCCCCCCC)CCCCCCCC [Compound 159, Heptadecan-9-yl 8-((2-hydroxyethyl)(2-((2-hydroxyethyl)(8-(nonyloxy)-8-oxooctyl)amino)ethyl)amino)octanoate]	0.190	75.9	99.29	7.873	–	3.32E+06	1.20E+07	4.98E+05	1.13E+06	2.17E+05	7.24E+05	–	–	–	–	<0.01	1.355E+008
